Entries after “also recorded” stand apart in the source; their conditions may differ. Like-named read-outs stand apart in the source and are kept apart here. Bridges are numbered along the chain shown (N, C = ends). Where no end group is shown, it is not given here. [ ]: non-standard residue; d: D form. R8 = C=CCCCCCC[C@@](C)(N)C(=O)O; S5 = C=CCCC[C@](C)(N)C(=O)O
What was measured:
[1] = test system: RSV 5-helix bundle; test: Competition fluorescence polarization assay (FPA) against FITC-RSV HR2 (488-522); assay type: binding, Respiratory Syncytial Virus (RSV)
Method: To assess binding activity toward the RSV fusogenic bundle, competition FPA was performed using recombinant five-helix bundle protein, fluorescent HR2 peptide (488-522), and serial dilutions of SAHF peptides shown in Table 2. More specifically, a 5-helix bundle protein was designed containing five of the six helices that comprise the core of the RSV-F trimer of hairpins, connected by short peptide linkers in accordance with the design of the gp41 5-helix bundle (Root et al., Science, 291:884-888, 2001). Because the 5-helix bundle lacks the third HR2 helix but is otherwise soluble, stable, and helical, incorporation of the sixth HR2 peptide in the form of FITC-RSV (488-522) yielded a stable complex, which can be competed with acetylated SAH-RSV peptides to gauge relative binding affinity.
FPA assays were used to measure and compare the relative binding activities of distinct SAHF constructs for the RSV fusion bundle. First, FITC-RSV HR2 peptide (488-522) is mixed with a serial dilution of recombinant 5-helix bundle protein to generate a binding isotherm. A fixed concentration of FITC-peptide and protein at ˜EC75 was then incubated with a serial dilution of acetylated SAHF peptide to generate competition curves for comparative analysis. Fluorescence polarization (mP units) was measured on a SpectraMax fluorimeter and IC50 values calculated by nonlinear regression analysis of competition curves using Prism software (Graphpad).

[2] = test system: rgRSV; test: rgRSV in vitro infectivity assay in Vero cells; assay type: cell-based, Respiratory Syncytial Virus (RSV); conditions: for inhibition of RSV infection (anti-RSV activity): rgRSV 0.1 MOI, 24 hour post-infection; for RSV infection, peptide administered before viral exposure (prophylactically): SAHF for 1 hour followed by rgRSV 0.1 MOI; for RSV infection, peptide administered after viral exposure: rgRSV 0.1 MOI for 1 hour followed by SAHF
Method: To test the capacity of SAHF peptides to block RSV infection of culture cells, an in vitro infectivity assay was performed in the presence and absence of SAHF peptides. Briefly, Vero cells plated in 48-well format (60,000 cells/well) were exposed to rgRSV only (0.1 MOI) and SAHF peptides, followed by imaging 24 hour post-infection to quantitate infectivity by confocal microscopy and FACS analysis Annexin V staining was also performed on harvested Vero cells to distinguish live from dead cells when calculating percent GFP positive cells.
(§1) Vero cells plated in 48-well format (60,000 cells/well) were exposed to (a) rgRSV only (0.1 MOI); (b) rgRSV for 1 hour followed by treatment with SAHF; and (c) SAHF for 1 hour followed by rgRSV infection, and then imaged 24 hour post-infection to quantitate infectivity by confocal microscopy and FACS analysis.

[3] = test system: rgRSV; test: Intranasal peptide followed by transnasal rgRSV infection in mice; assay type: in vivo; conditions: 250 μM, 25 μL intranasally four hours before rgRSV, 20 hours post-infection
Method: To examine the capacity of SAH-RSV peptides to inhibit RSV infection in vivo, vehicle or SAH-RSV peptide (250 μM, 25 μL) was administered to anesthetized mice intranasally followed by transnasal infection with rgRSV (5×10^5 PFU, 36 μL) four hours later. Mice were sacrificed 20 hours post-infection, and the nasal epithelium cryosectioned, stained with DAPI, and imaged using a fluorescent microscope.

[4] = test system: rgRSV; test: Virus-induced syncytia formation in Vero cells; assay type: cell-based, Respiratory Syncytial Virus (RSV); conditions: administered before or after viral exposure
Method: as §1

[5] = Circular dichroism (CD) alpha-helicity; assay type: physicochemical; conditions: aqueous solution (pH 7, 35° C.)
Method: Compounds are dissolved in an aqueous solution (e.g. 5 mM potassium phosphate solution at pH 7, or distilled H2O, to concentrations of 25-50 μM). Circular dichroism (CD) spectra are obtained on a spectropolarimeter (e.g., Jasco J-710, Aviv) using standard measurement parameters (e.g. temperature, 20° C.; wavelength, 190-260 nm; step resolution, 0.5 nm; speed, 20 nm/sec; accumulations, 10; response, 1 sec; bandwidth, 1 nm; path length, 0.1 cm). The α-helical content of each peptide is calculated by dividing the mean residue ellipticity by the reported value for a model helical decapeptide (Yang et al., Methods Enzymol. 130:208 (1986)).
To document secondary structure improvements of hydrocarbon-stapled peptides, circular dichroism (CD) spectra was recorded and analyzed on a Model 410 Aviv Biomedical spectrometer (Walensky, supra; Bird, supra). […] The target peptide concentration for CD studies is 25-50 μM in 50 mM potassium phosphate (pH 7.5) or Milli-Q deionized water, and exact concentrations are confirmed by quantitative AAA of two CD sample dilutions. […] After conversion to mean residue ellipticity, percent α-helicity can be calculated using the equation, % helicity=100×[θ]222/max[θ]222, where max[θ]222=−40,000×[1−(2.5/number of amino acid residues)]. […]

[6] = test system: RSV-A2; test: RSV-A2 lung infection of BALB/c mice after prophylactic intranasal peptide; assay type: in vivo
Method: One hour post treatment, three groups of mice were inoculated with a single dose of RSV-A2 at 1×10^6 pfu/mouse. Peptide dosing and viral inoculation was repeated 16 hours post-infection. The fourth group was treated with volume-equivalent vehicle and mock-infected. Two mice from each group were sacrificed 4 days after the second infection and left lung lobes harvested after 1% paraformaldehyde perfusion, followed by cryopreservation in OCT. Sections (5 μm) were treated with 1:1000 dilution of rabbit anti-RSV polyclonal antibody (Millipore) overnight followed by anti-rabbit antibody conjugated to Alexa Fluor 555 (1:400) (red) (Molecular Probes) for 1 h. Sections were washed and mounted with medium containing DAPI (blue) and viewed with an Olympus fluorescent microscope (FIG. 17A; original magnification 20×). Image J analysis was performed on the acquired images and the percentage RSV-positive cells (red) of total DAPI-positive cells (blue) determined from 8 images (4 sections) per mice (FIG. 17B; .error bars represent mean+/−SEM; *, p<0.0001). Four days after the second infection, bronchoalveolar lavage (BAL) was performed on one mouse from each group and BAL supernatant used to determine the viral titers by plaque assay on Hep-2 cells (FIG. 17C; error bars represent mean+/−SEM of plaques counted per in vivo specimen; *, p<0.05). Also at four days after the second infection, cranial and caudal lobes of the right lung from two mice per group were snap frozen on dry ice. A lung homogenate was generated from the cranial lobe and supernatant subjected to viral titer determination (log 10 pfu/ml) (FIG. 17D; error bars represent mean+/−SEM; *, p<0.05). Total RNA was isolated from the caudal lobe of the right lung and quatitative RT-PCR was performed for the RSV-N gene. The results of this analysis are presented in FIG. 17E in which the bar graphs represent the RSV-N gene expression normalized to the mock-infected tissue.

[7] = test system: RSV-A2; test: RSV-A2 infection of A549 cells at 1 MOI, Hep-2 plaque assay titers; assay type: cell-based, Respiratory Syncytial Virus (RSV); conditions: 5 μM peptide
Method: In this study A549 cells were plated in a 24 well plate at 30,000 cells/well. The following day, the cells were treated with 5 μM of the indicated stapled SAHF peptide or volume-equivalent DMSO vehicle, followed by RSV-A2 infection at 1 MOI. The cells were infected for 2 h, and the infection medium replaced with 400 μl of DMEM containing 5% FBS and 5 μM of the indicated stapled SAHF peptide. Cells were harvested along with the supernantant 24 h post infection, vortexed for 10 sec, and the supernatant collected, leaving the cell pellet behind. Hep-2 cells were plated on a 24 well plate at 60,000 cells/well the day before use. Plaque assay was performed on Hep-2 cells using the collected supernatant and titers determined at 5 days post infection of Hep-2 cells. The results of this analysis are shown in FIG. 14 in which titers are shown as log 10 pfu/ml and the values represent the mean+/−SEM for two independent experiments (***p<0.001; ****p<0.0001).

[8] = test system: RgRSV; test: Intranasal RgRSV infection of BALB/c mice after intranasal peptide; assay type: in vivo; conditions: RgRSV-infected, 125 μM intranasally
Method: One hour post treatment, three groups of mice were inoculated with a single dose of RgRSV at 1×10^6 pfu/mouse, with the fourth group receiving a mock inoculation. Mice were sacrificed at 24 hours post infection and the noses harvested, sectioned, stained with DAPI and imaged with an Olympus fluorescent microscope (FIG. 16A; original magnification 20×). Image J analysis was performed on the acquired images (FIG. 16B) and average GFP positive (green) and DAPI positive (blue) cells were calculated from eight images (4 sections) per mouse (bars represent percent GFP positive of total DAPI-positive cells present in the images and error bars represent mean+/−SEM. *, p<0.001). FIG. 16C depicts the results of hematoxylin and eosin staining of the nose sections (original magnification 20×, insets 100×) In FIG. 16C black arrows highlight thickened mucosa.

In the case of “FDASISQVNEKINQSLAFI8KSDELLXNVNAGKST (Ac-FDASISQVNEKINQSLAFI[R8]KSDELL[S5]NVNAGKST; staple 20-27) [SAHF-J]”, the “5-helix bundle binding activity” value [1] was “superior 5-helix bundle binding” and the “inhibition of RSV infection (anti-RSV activity)” value (shortened to “inhibition of RSV infection”) [2] was “superior”.
With “FDASISQVNEKINQSLAFIRK8DELLHNXNAGKST [SAHF-L, negative control]” the “5-helix bundle binding activity” value [1] was “no binding activity; also recorded: did not bind”, the “5-helix bundle binding activity” value ([1]; listed as SAH-RSV(L)) was “poor binding activity; also recorded: incapable of binding the 5-helix bundle” and the “RSV infection, peptide administered before viral exposure (prophylactically)” value [2] was “little to no effect”. For the same substance, the “RSV infection, peptide administered after viral exposure” value [2] was “little to no effect”, the “inhibition of RSV infection” value [2] was “nor suppressed RSV infection in vitro” and the “inhibition of RSV infection” value ([2]; listed as SAH-RSV(L)) was “no activity”. The “RSV infection of nasal mucosa (GFP-positive cells)” value [3] was “no in vivo activity” and the virus-induced syncytia formation [4] was “little to no effect”.
For “FDASISQVNEKINQSLAFIRKSDELLHNVNAGKST [RSV HR2 (488-522)WT, reference compound]”, the “percent α-helicity” value [5] was ~23% and the “RSV-N gene expression in lung (quantitative RT-PCR)” value ([6]; caudal lobe of right lung) was “no observed effect”.
In the case of “FDASISQVNEKINQSLAFIR8SDELLHXVNAGKST (Ac-FDASISQVNEKINQSLAFIR[R8]SDELLH[S5]VNAGKST; staple 21-28) [SAHF-K]”, the “5-helix bundle binding activity” value [1] was “superior 5-helix bundle binding” and the “inhibition of RSV infection” value [2] was “superior”.
For “F8ASISQVXEKINQSLAFIRKSDELLHNVNAGKST (Ac-F[R8]ASISQV[S5]EKINQSLAFIRKSDELLHNVNAGKST; staple 2-9) [SAHF-G]”, the “5-helix bundle binding activity” value [1] was “superior 5-helix bundle binding” and the “inhibition of RSV infection” value [2] was “superior”.
In the case of “FDA8ISQVNEXINQSLAFI8KSDELLXNVNAGKST (Ac-FDA[R8]ISQVNE[S5]INQSLAFI[R8]KSDELL[S5]NVNAGKST; staple 4-11, 20-27) [SAHF-I, J]”, the “RSV-A2 infection (viral titers)” value [7] was “inhibit RSV-A2 infection of A549 cells”.
In the case of “FD8SISQVNXKINQSLAFIRKSDELLHNVNAGKST (FDXSISQVNXKINQSLAFIRKSDELLHNVNAGKST; hydrocarbon staple; MOD_RES (3)..(3) Any amino acid; (3)..(10) Crosslink between residues; MOD_RES (10)..(10) Any amino acid) [SAHF-H]”, the “5-helix bundle binding activity” value [1] was “superior 5-helix bundle binding”, the “RSV infection, peptide administered before viral exposure (prophylactically)” value [2] was “inhibited RSV infection; also recorded: blocks RSV infection of Vero cells” and the “RSV infection, peptide administered after viral exposure” value [2] was “inhibited RSV infection; also recorded: blocks RSV infection of Vero cells”. The “inhibition of RSV infection” value [2] was “superior” and the virus-induced syncytia formation [4] was “blocked syncytial formation; also recorded: inhibits virus-induced syncytia formation”.
For “FDAXISQXNEKINQSLAFIRKSDELLHNVNAGKST (Ac-FDA[S5]ISQ[S5]NEKINQSLAFIRKSDELLHNVNAGKST; staple 4-8) [SAHF-C]”, the “5-helix bundle binding activity” value [1] was “bound the 5-helix bundle”, the “inhibition of RSV infection” value [2] was “suppressed RSV infection in vitro” and the “RSV infection of nasal mucosa (GFP-positive cells)” value [3] was “markedly suppressed RSV infection; also recorded: blocks trans-nasal RSV infection in mice”.
In the case of “FD8SISQVNXKINQSLAFIRK8DELLHNXNAGKST (FDXSISQVNXKINQSLAFIRKXDELLHNXNAGKST; two hydrocarbon staples; MOD_RES (3)..(3) Any amino acid; (3)..(10) Crosslink between residues; MOD_RES (10)..(10) Any amino acid; MOD_RES (22)..(22) Any amino acid; (22)..(29) Crosslink between residues; MOD_RES (29)..(29) Any amino acid) [SAHF-H, L, control]”, the “inflammation in nose sections (hematoxylin and eosin staining)” value [8] was “Inflammation is noted” and the “RSV-A2 lung infection, by each measure (RSV-positive cells, BAL and lung homogenate titers, RSV-N gene)” value ([6]; 125 μM intranasally, dosing and inoculation repeated at 16 hours, 4 days after second infection) was “no effect”.
With “FDA8SQVVNEXINQSLAFIRKSDELLHNVNAGKST [SAHF-I]” the “5-helix bundle binding activity” value [1] was “superior 5-helix bundle binding” and the “inhibition of RSV infection” value [2] was “superior”.

— patent US10077290B2, “Stabilized antiviral fusion helices” (priority 2011, dated 2018)
